The values that follow come from patent publication US20050197350A1, “Novel quinoline, tetrahydroquinazoline, and pyrimidine derivatives and methods of treatment related to the use thereof” (TAISHO PHARMACEUTICAL CO., LTD., priority 2003, published 2005).

SMILES strings stand for the structures. Where a name gives a salt, the structure may show the parent alone.

For one assay, the target named is MCH receptor (Homo sapiens, UniProt Q99705). In words: High throughput functional screening FLIPR/FDSS6000 (intracellular Ca2+ evoked by MCH). To be noted: FLIPR/FDSS, antagonist activity vs 50 nM MCH; class by percent of control at 10^−7 M or IC50; read-out: class. The class given is cell-based. In short, it runs like this: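 For antagonist testing, compound-treated cells (30 min, 37 °C) were stimulated with 50 nM MCH and intracellular Ca2+ followed by Fluo4 fluorescence on FLIPR/FDSS6000. Receptor was a constitutively active, non-endogenous MCH receptor; dye loading 4 μM Fluo4-AM, 1 h, 37 °C.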
For `Cc1cnc(N[C@H]2CC[C@@H](NC(=O)c3cccnc3S(=O)(=O)c3ccoc3C)CC2)nc1N(C)C` [Example 3290, N-(cis-4-{[4-(dimethylamino)-5-methylpyrimidin-2-yl]amino}cyclohexyl)-2-[(2-methyl-3-furyl)sulfonyl]nicotinamide], the IC50 is above 200 nM.
For `COc1nc(N[C@H]2CC[C@@H](NC(=O)c3cc(C(F)(F)F)cc(C(F)(F)F)c3)CC2)ncc1C` [Example 3280, N-{cis-4-[(4-methoxy-5-methylpyrimidin-2yl)amino]cyclohexyl}-3,5-bis(trifluoromethyl)benzamide], the IC50 was above 200 nM.
Consider `Cc1cnc(N[C@H]2CC[C@@H](NC(=O)Nc3ccc(F)c(Cl)c3)CC2)nc1N(C)C` [Example 3331, N-(3-chloro-4-fluorophenyl)-N′-(cis-4-{[4-(dimethylamino)-5-methylpyrimidin-2-yl]amino}cyclohexyl)urea], for which the IC50 is 50 to 200 nM.
On to `Cc1cc(N[C@H]2CC[C@@H](C(=O)N[C@H](C)c3ccc(OC(F)(F)F)cc3)CC2)nc2ccccc12` [Example 3310, cis-4-[(4-methylquinolin-2-yl)amino]-N-{(1R)-1-[4-(trifluoromethoxy)phenyl]ethyl}cyclohexanecarboxamide], for which the IC50 is above 200 nM.
Take `Cc1cnc(N[C@H]2CC[C@@H](NC(=O)N(C)c3ccccc3Cl)CC2)nc1N(C)C` [Example 3347, N-(2-chlorophenyl)-N′-(cis-4-{[4-(dimethylamino)-5-methylpyrimidin-2-yl]amino}cyclohexyl)-N-methylurea]: the IC50 lay within 50 to 200 nM.
Take `CNc1nc(N[C@H]2CC[C@@H](NC(=O)COc3cc(C(F)(F)F)ncn3)CC2)ncc1C` [Example 3363, N-(cis-4-{[5-methyl-4-(methylamino)pyrimidin-2-yl]amino}-cyclohexyl)-2-{[6-(trifluoromethyl)pyrimidin-4-yl]oxy}acetamide]: the IC50 was above 200 nM.
Still for that read-out and setting: as for `Cc1cnc(NC2CCC(C(=O)N[C@@H](C)c3cccc(C(F)(F)F)c3)CC2)nc1N(C)C` (stereo partly drawn) [Example 3298, 4-{[4-(dimethylamino)-5-methylpyrimidin-2-yl]amino}-N-{(1S)-1-[3-(trifluoromethyl)phenyl]ethyl}cyclohexanecarboxamide], the figure is below 50 nM; as for `Cc1cnc(N[C@H]2CC[C@@H](NC(=O)N(C)C(C)(C)c3ccc(Cl)cc3)CC2)nc1N(C)C` [Example 3269, N-[1-(4-chlorophenyl)-1-methylethyl]-N′-(cis-4-{[4-(dimethylamino)-5-methylpyrimidin-2-yl]amino}cyclohexyl)-N-methylurea], below 50 nM.
The same measure, in the same setting: in the case of `Cc1cnc(N[C@H]2CC[C@@H](C(=O)N[C@H](C)c3ccc(OC(F)(F)F)cc3)CC2)nc1N(C)C` [Example 3303, cis-4-{[4-(dimethylamino)-5-methylpyrimidin-2-yl]amino}-N-{(1R)-1-[4-(trifluoromethoxy)phenyl]ethyl}-cyclohexanecarboxamide] it was 50 to 200 nM.
The same measure, in the same setting: as for `Cc1cc(N(C)C)nc(N[C@H]2CC[C@@H](C(=O)NC(C)(C)c3ccc(Cl)cc3)CC2)n1` [Example 3274, cis-N-[1-(4-chlorophenyl)-1-methylethyl]-4-{[4-(dimethylamino)-6-methylpyrimidin-2-yl]amino}cyclohexanecarboxamide], the figure is above 200 nM; as for `Cc1cnc(N[C@H]2CC[C@@H](NC(=O)NC3(c4ccc(Cl)cc4)CC3)CC2)nc1N(C)C` [Example 3266, N-[1-(4-chlorophenyl)cyclopropyl]-N′-(cis-4-{[4-(dimethylamino)-5-methylpyrimidin-2-yl]amino}cyclohexyl)urea], below 50 nM.

Staying with this assay, now noted: FLIPR/FDSS, antagonist activity vs 50 nM MCH; class by percent of control at 10^−7 M or IC50; table after the classification; read-out: class.
On to `Cc1cc(N[C@H]2CC[C@@H](NC(=O)c3cc(F)cc(Cl)c3)CC2)nc2ccccc12` [Example 3179, 3-Chloro-5-fluoro-N-[cis-4-(4-methyl-quinolin-2-ylamino)-cyclohexyl]-benzamide hydrochloride], for which the IC50 is below 50 nM.
On the same count and under the same terms, in the case of `O=C(N[C@H]1CC[C@@H](Nc2ccc3ccccc3n2)CC1)C(c1ccccc1)c1ccccc1` [Example 3052, 2,2-Diphenyl-N-[cis-4-(quinolin-2-ylamino)-cyclohexyl]-acetamide hydrochloride] it was below 50 nM.
On the same count and under the same terms, as for `Cc1cccc(C(=O)N[C@H]2CC[C@@H](Nc3ccc4ccccc4n3)CC2)c1` [Example 3033, 3-Methyl-N-[cis-4-(quinolin-2-ylamino)-cyclohexyl]-benzamide hydrochloride], the figure is below 50 nM.
In the case of `CCNc1ccnc(N[C@H]2CC[C@@H](NC(=O)c3ccc(F)c(F)c3)CC2)n1` [Example 3225, N-[cis-4-(4-Ethylamino-pyrimidin-2-ylamino)-cyclohexyl]-3,4-difluoro-benzamide hydrochloride], the IC50 was above 200 nM.
Take `Cc1cc(N[C@H]2CC[C@@H](NC(=O)c3ccc(F)c(F)c3)CC2)nc2ccccc12` [Example 3238, 3,4-Difluoro-N-[cis-4-(4-methyl-quinolin-2-ylamino)-cyclohexyl]-benzamide methanesulfonic acid]: the IC50 was below 50 nM.
Same read-out and setting: in the case of `NC(=O)c1cccc(C(=O)N[C@H]2CC[C@@H](Nc3ccc4ccccc4n3)CC2)c1` [Example 3155, N-[cis-4-(Quinolin-2-ylamino)cyclohexyl]-isophthalamide hydrochloride] it was above 200 nM.
Still for that read-out and setting: in the case of `CNc1cc(N[C@H]2CC[C@@H](NCCc3ccc(Br)cc3OC(F)(F)F)CC2)nc2ccccc12` [Example 2, N^2-{cis-4-[2-(4-Bromo-2-trifluoromethoxy-phenyl)-ethylamino]-cyclohexyl}-N^4-methyl-quinoline2,4-diamine dihydrochloride] it was 50 to 200 nM.
Same read-out and setting: as for `CN(C)N(c1ncc(Cl)cn1)[C@H]1CC[C@@H](NC(=O)c2cccnc2Oc2ccccc2)CC1` [Example 3137, N-[cis-4-(5-Chloro-dimethylamino-pyrimidin-2-ylamino)-cyclohexyl]-2-phenoxy-nicotinamide hydrochloride], the figure is 50 to 200 nM; as for `CN(C)c1ccnc(N[C@H]2CC[C@@H](NC(=O)c3cc(Cl)ccn3)CC2)n1` [Example 3213, 4-Chloro-pyridine-2-carboxylic acid [cis-4-(4-dimethylamino-pyrimidin-2-ylamino)-cyclohexyl]-amide hydrochloride], above 200 nM; as for `Cc1cc(N(C)C)nc(N[C@H]2CC[C@@H](NC(=O)c3cc(F)cc(Cl)c3)CC2)n1` [Example 3384, 3-Chloro-N-[cis-4-(4-dimethylamino6-methyl-pyrimidin-2-ylamino)-cyclohexyl]5-fluoro-benzamide hydrochloride], below 50 nM.
With `CN(C)c1cc(N[C@H]2CC[C@@H](CNC(=O)c3ccc(F)c(F)c3)CC2)nc2ccccc12` [Example 3190, N-[cis-4-(4-Dimethylamino-quinolin-2-ylamino)-cyclohexylmethyl]-3,4-difluoro-benzamide hydrochloride], the IC50 lay in the range of 50 to 200 nM.
On the same count and under the same terms, in the case of `Cc1ccc(Oc2ncccc2C(=O)N[C@H]2CC[C@@H](Nc3cc(C)c4ccccc4n3)CC2)cc1` [Example 3092, N-[cis-4-(4-Methyl-quinolin-2-ylamino)-cyclohexyl]-2-p-tolyloxy-nicotinamide hydrochloride] it was below 50 nM; in that of `Cc1cc(N[C@H]2CC[C@@H](NC(=O)c3cccc(C(N)=O)c3)CC2)nc2ccccc12` [Example 3178, N-[cis-4-(4-Methylquinolin-2-ylamino)-cyclohexyl]-isophthalamide hydrochloride], 50 to 200 nM.
The same measure, in the same setting: as for `Cc1cc(N[C@H]2CC[C@@H](NC(=O)c3cccnc3Oc3ccc(Br)cc3)CC2)nc2ccccc12` [Example 3094, 2-(4-Bromo-phenoxy)-N-[cis-4-(4-methyl-quinolin-2-ylamino)-cyclohexyl]-nicotinamide hydrochloride], the figure is below 50 nM; as for `CN(C)c1ccnc(N[C@H]2CC[C@@H](NC(=O)c3cc(C(C)(C)C)c(O)c(C(C)(C)C)c3)CC2)n1` [Example 3217, 3,5-Di-tert-butyl-N-[cis-4-(4-dimethylamino-pyrimidin-2-ylamino)-cyclohexyl]-4-hydroxy-benzamide hydrochloride], below 50 nM; as for `Cc1cc(N[C@H]2CC[C@@H](NC(=O)c3ccccn3)CC2)nc2ccccc12` [Example 3181, Pyridine-2-carboxylic acid [cis-4-(4-methyl-quinolin-2-ylamino)-cyclohexyl]-amide hydrochloride], 50 to 200 nM.
For the compound `COc1cccc(C(=O)N[C@H]2CC[C@@H](Nc3ccc4ccccc4n3)CC2)c1` [Example 3240, 3-Methoxy-N-[cis-4-(quinolin-2-ylamino)-cyclohexyl]-benzamide methanesulfonic acid], the IC50 is below 50 nM.
On the same count and under the same terms, in the case of `O=C(N[C@H]1CC[C@@H](Nc2ncccn2)CC1)c1ccc(F)c(F)c1` [Example 3144, 3,4-Difluoro-N-[cis-4-(pyrimidin-2-ylamino)-cyclohexyl]-benzamide hydrochloride] it was above 200 nM; in that of `CN(C)c1ccnc(N[C@H]2CC[C@@H](CNC(=O)Nc3cccc(Cl)c3Cl)CC2)n1` [Example 3222, 1-(2,3-Dichloro-phenyl)-3-[cis-4-(4-dimethylamino-pyrimidin-2-ylamino)-cyclohexylmethyl]-urea hydrochloride], below 50 nM; in that of `O=C(N[C@H]1CC[C@@H](Nc2ccc3ccccc3n2)CC1)c1cccnc1Oc1ccccc1Br` [Example 3048, 2-(2-Bromophenoxy)-N-[cis-4-(quinolin-2-ylamino)-cyclohexyl]-nicotinamide hydrochloride], below 50 nM.
Same read-out and setting: as for `CN(C)c1ccnc(N[C@H]2CC[C@@H](NC(=O)c3cc(F)c(F)c(F)c3)CC2)n1` [Example 3216, N-[cis-4-(4-Dimethylamino-pyrimidin-2-ylamino)-cyclohexyl]-3,4,5-trifluoro-benzamide hydrochloride], the figure is below 50 nM.
